Drawing on BindingDB's records for doi:10.1021/jm00075a032 (University of Bologna, 1993), this text covers Ki for one compound.

Experiment [1] concerns the target T1, Muscarinic acetylcholine receptor M1 (Rattus norvegicus, UniProt P08482).
T1 sequence (P08482 whole entry): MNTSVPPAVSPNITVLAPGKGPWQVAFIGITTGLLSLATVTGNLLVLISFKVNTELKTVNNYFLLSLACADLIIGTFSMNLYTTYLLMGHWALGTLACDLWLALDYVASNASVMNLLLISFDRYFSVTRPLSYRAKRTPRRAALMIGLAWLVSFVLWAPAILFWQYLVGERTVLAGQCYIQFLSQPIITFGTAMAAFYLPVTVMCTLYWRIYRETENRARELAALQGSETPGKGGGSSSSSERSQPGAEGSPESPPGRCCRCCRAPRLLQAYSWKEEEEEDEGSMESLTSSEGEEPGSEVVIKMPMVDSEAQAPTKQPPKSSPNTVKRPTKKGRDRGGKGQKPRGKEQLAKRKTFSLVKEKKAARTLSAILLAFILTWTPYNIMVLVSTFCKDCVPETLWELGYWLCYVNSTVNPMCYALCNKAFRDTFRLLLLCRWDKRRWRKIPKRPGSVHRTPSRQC

In experiment [2] the target is T2, Muscarinic acetylcholine receptor M4 (Rattus norvegicus, UniProt P08485).
T2 sequence (P08485 whole entry): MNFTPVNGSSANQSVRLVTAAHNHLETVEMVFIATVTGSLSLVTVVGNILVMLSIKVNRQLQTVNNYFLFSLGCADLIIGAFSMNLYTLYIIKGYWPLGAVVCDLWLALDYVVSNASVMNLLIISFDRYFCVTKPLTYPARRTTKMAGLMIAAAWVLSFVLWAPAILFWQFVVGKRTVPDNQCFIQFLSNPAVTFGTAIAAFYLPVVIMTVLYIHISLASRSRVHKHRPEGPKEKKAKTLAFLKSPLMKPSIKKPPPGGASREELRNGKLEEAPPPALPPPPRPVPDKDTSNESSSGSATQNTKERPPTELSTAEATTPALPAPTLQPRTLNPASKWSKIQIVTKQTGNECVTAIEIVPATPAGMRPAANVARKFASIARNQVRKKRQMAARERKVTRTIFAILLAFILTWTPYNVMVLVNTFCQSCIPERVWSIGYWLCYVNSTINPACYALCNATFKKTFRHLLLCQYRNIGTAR

Experiment [3] addresses T3, Muscarinic acetylcholine receptor M2 (Rattus norvegicus, UniProt P10980).
T3 sequence (P10980 whole entry): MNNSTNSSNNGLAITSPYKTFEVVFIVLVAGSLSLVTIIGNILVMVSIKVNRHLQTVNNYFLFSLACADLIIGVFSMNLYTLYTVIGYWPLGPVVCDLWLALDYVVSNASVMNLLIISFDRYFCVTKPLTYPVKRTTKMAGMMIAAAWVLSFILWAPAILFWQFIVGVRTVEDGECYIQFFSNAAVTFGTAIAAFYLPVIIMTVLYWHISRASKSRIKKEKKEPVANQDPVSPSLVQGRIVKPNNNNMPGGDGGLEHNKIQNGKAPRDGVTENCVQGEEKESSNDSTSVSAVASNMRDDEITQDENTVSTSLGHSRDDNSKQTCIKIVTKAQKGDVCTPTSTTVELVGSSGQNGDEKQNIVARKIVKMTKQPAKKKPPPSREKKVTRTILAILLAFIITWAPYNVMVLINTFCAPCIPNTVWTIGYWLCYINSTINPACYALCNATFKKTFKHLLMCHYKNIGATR

For experiment [4], the target named is Muscarinic acetylcholine receptor M3 (Rattus norvegicus, UniProt P08483).
Sequence of Muscarinic acetylcholine receptor M3 (P08483 whole entry): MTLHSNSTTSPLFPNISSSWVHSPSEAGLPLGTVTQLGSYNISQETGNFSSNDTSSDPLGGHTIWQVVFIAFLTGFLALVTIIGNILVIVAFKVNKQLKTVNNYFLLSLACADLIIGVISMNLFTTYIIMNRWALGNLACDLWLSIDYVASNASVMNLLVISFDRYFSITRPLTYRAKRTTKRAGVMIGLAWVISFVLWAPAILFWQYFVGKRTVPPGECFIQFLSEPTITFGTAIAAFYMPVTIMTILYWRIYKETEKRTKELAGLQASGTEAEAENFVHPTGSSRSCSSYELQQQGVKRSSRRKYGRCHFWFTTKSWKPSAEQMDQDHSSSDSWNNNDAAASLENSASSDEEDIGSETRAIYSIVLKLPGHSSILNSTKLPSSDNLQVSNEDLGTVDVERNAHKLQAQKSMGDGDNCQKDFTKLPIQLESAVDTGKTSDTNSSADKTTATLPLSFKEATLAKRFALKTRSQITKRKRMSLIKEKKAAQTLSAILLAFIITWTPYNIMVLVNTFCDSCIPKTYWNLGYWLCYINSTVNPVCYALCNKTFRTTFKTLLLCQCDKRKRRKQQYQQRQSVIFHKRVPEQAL

In the case of `CN(CCCCCCNCCCCCCCCNCCCCCCN(CN1c2ccccc2C(=O)Nc2cccnc21)CN1c2ccccc2C(=O)Nc2cccnc21)CN1c2ccccc2C(=O)Nc2cccnc21` [methoctramine analog 5], the Ki (as a rule, a measure of affinity in units of concentration, obtained from inhibition or displacement) in experiment [1] worked out at 23.4 nM; in experiment [2] it was 11.7 nM; in experiment [3], 0.29 nM; in experiment [4] it was 646 nM.
